Test results published in ChEMBL document CHEMBL1154119, “Rational design, synthesis and characterization of potent, non-peptidic Smac mimics/XIAP inhibitors as proapoptotic agents for cancer therapy” (Bioorg Med Chem, 2009).

Tests used:
MDA-MB-231 = assay: cells; conditions: Homo sapiens, MDA-MB-231, 96 h
Description: Cytotoxicity against human MDA-MB-231 cells after 96 hrs by MTT assay

[1] = Metabolic stability of compound in phosphate buffer in presence of human CYP3A4 and NADPH; assay type: ADME
PC-3 = assay: Cytotoxicity against human PC3 cells after 96 hrs by MTT assay; conditions: PC-3, 96 h
HL-60 = assay: Cytotoxicity against human HL60 cells after 96 hrs by MTT assay; conditions: HL-60, 96 h
[2] = target: T1, E3 ubiquitin-protein ligase XIAP (Homo sapiens, UniProt P98170)
Description: Binding affinity to human recombinant XIAP linker BIR2-BIR3 expressed in Escherichia coli BL21 by fluorescence polarization assay

[3] = target: T1, E3 ubiquitin-protein ligase XIAP; remark: listed apart in the source
Description: Binding affinity to human recombinant XIAP BIR3 domain expressed in Escherichia coli BL21 by fluorescence polarization assay

[4] = Solubility at pH 7.4; assay type: physicochemical; conditions: buffer
[5] = Solubility at pH 3; assay type: physicochemical; conditions: buffer

T1 sequence (P98170 whole entry): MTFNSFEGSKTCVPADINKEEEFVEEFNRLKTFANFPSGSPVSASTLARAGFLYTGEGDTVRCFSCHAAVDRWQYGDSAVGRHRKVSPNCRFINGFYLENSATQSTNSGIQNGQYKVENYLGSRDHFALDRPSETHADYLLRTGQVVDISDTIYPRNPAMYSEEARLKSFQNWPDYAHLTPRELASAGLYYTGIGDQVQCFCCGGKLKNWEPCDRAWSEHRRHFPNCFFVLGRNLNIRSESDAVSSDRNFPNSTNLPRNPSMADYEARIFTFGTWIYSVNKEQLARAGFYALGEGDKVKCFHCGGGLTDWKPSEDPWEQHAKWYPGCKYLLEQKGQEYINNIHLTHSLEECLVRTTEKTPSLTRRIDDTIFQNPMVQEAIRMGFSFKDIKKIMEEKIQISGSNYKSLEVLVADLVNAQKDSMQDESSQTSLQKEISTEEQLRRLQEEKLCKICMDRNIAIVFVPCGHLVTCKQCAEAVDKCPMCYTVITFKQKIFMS

| Compound | IC50 (MDA-MB-231) | Stability [1] | IC50 [2] | IC50 [3] | solubility [4] | solubility [5] | IC50 (PC-3) | IC50 (HL-60) |
| --- | --- | --- | --- | --- | --- | --- | --- | --- |
| CC[C@H](N)C(=O)N[C@H]1CCC[C@H]2CC[C@@H](C(=O)NC(c3ccccc3)c3ccccc3)N2C1=O | > 100 µM | 87% |  |  |  |  | > 100 µM | 24.5 µM |
| CC[C@H](NC)C(=O)N[C@@H]1C(=O)N2[C@@H](CC[C@@H]1CO)CC[C@H]2C(=O)NC(c1ccccc1)c1ccccc1 | […] | 86% |  |  |  |  | > 100 µM | 26.1 µM |
| CCNCC[C@H]1CC[C@H]2CC[C@@H](C(=O)NC(c3ccccc3)c3ccccc3)N2C(=O)[C@H]1NC(=O)[C@H](CC)NC | 1.3 µM | 90% |  |  |  |  | > 100 µM | 76.4 µM |
| CC[C@H](N)C(=O)N[C@@H]1C(=O)N2[C@@H](CC[C@@H]1CCN)CC[C@H]2C(=O)NC(c1ccccc1)c1ccccc1 | 12.9 µM | 75% | 0.086 µM |  |  |  | 85.2 µM | 25 µM |
| CC[C@H](N)C(=O)N[C@@H]1C(=O)N2[C@@H](CC[C@@H]1CCNC(=O)NCc1ccccc1)CC[C@H]2C(=O)NC(c1ccccc1)c1ccccc1 | 10.8 µM | 65% |  |  |  |  | > 100 µM | 83.3 µM |
| CC[C@H](NC)C(=O)N[C@@H]1C(=O)N2[C@@H](CC[C@@H]1CCNCc1ccccc1)CC[C@H]2C(=O)NC(c1ccccc1)c1ccccc1 | 0.141 µM | 81% | 0.027 µM | 0.11 µM | Soluble | Soluble | 7.8 µM | 5.2 µM |
| CC[C@H](NC)C(=O)N[C@@H]1C(=O)N2[C@@H](CC[C@@H]1CCO)CC[C@H]2C(=O)NC(c1ccccc1)c1ccccc1 | 0.173 µM |  |  |  |  |  | > 100 µM | 74.8 µM |
| CC[C@H](N)C(=O)N[C@@H]1C(=O)N2[C@@H](CC[C@@H]1CN)CC[C@H]2C(=O)NC(c1ccccc1)c1ccccc1 | 6.03 µM | 93% |  |  |  |  | > 100 µM | 69.3 µM |
| CCNC[C@H]1CC[C@H]2CC[C@@H](C(=O)NC(c3ccccc3)c3ccccc3)N2C(=O)[C@H]1NC(=O)[C@@H](N)CC | 0.286 µM | 81% |  |  |  |  | > 100 µM | 84 µM |
| CCNCC[C@H]1CC[C@H]2CC[C@@H](C(=O)NC(c3ccccc3)c3ccccc3)N2C(=O)[C@H]1NC(=O)[C@@H](N)CC | 8 µM |  |  |  |  |  | > 100 µM | 62.8 µM |
| CC[C@H](N)C(=O)N[C@@H]1C(=O)N2[C@@H](CC[C@@H]1CNC(=O)NCc1ccccc1)CC[C@H]2C(=O)NC(c1ccccc1)c1ccccc1 | 3.4 µM | 73% |  |  |  |  | > 100 µM | 51 µM |
| CC[C@H](N)C(=O)N[C@@H]1C(=O)N2[C@@H](CC[C@@H]1CNC(=O)c1ccccc1)CC[C@H]2C(=O)NC(c1ccccc1)c1ccccc1 |  | 81% |  |  |  |  | 80.1 µM | 36 µM |
| CC[C@H](N)C(=O)N[C@@H]1C(=O)N2[C@@H](CC[C@@H]1CNCc1ccccc1)CC[C@H]2C(=O)NC(c1ccccc1)c1ccccc1 | 0.099 µM |  |  |  |  |  | 24.1 µM | 13.1 µM |

Second part, led by results:

| IC50 (MDA-MB-231) | Stability [1] | IC50 [2] | IC50 [3] | solubility [4] | solubility [5] | Compound | IC50 (PC-3) | IC50 (HL-60) |
| --- | --- | --- | --- | --- | --- | --- | --- | --- |
| 0.146 µM | 83% |  |  |  |  | CC[C@H](NC)C(=O)N[C@H]1CCC[C@H]2CC[C@@H](C(=O)NC(c3ccccc3)c3ccccc3)N2C1=O | 56.9 µM | 20.2 µM |
| 0.542 µM | 78% |  |  |  |  | CC[C@H](NC)C(=O)N[C@@H]1C(=O)N2[C@@H](CC[C@@H]1CN)CC[C@H]2C(=O)NC(c1ccccc1)c1ccccc1 | 51.7 µM | 51.8 µM |
| 1.03 µM | 79% |  |  |  |  | CC[C@H](N)C(=O)N[C@@H]1C(=O)N2[C@@H](CC[C@@H]1CO)CC[C@H]2C(=O)NC(c1ccccc1)c1ccccc1 | > 100 µM | 6.5 µM |
| 2.3 µM | 86% |  |  |  |  | CC[C@H](NC)C(=O)N[C@@H]1C(=O)N2[C@@H](CC[C@@H]1CCN)CC[C@H]2C(=O)NC(c1ccccc1)c1ccccc1 | > 100 µM | 31 µM |
| 0.93 µM | 65% |  |  |  |  | CC[C@H](N)C(=O)N[C@@H]1C(=O)N2[C@@H](CC[C@@H]1CCNC(=O)c1ccccc1)CC[C@H]2C(=O)NC(c1ccccc1)c1ccccc1 | > 100 µM | 50.7 µM |
| 0.21 µM | 43% |  |  |  |  | CC[C@H](NC)C(=O)N[C@@H]1C(=O)N2[C@@H](CC[C@@H]1CCNC(=O)c1ccccc1)CC[C@H]2C(=O)NC(c1ccccc1)c1ccccc1 | > 100 µM | 32.6 µM |
| 1.2 µM | 51% |  |  |  |  | CC[C@H](NC)C(=O)N[C@@H]1C(=O)N2[C@@H](CC[C@@H]1CCNC(=O)NCc1ccccc1)CC[C@H]2C(=O)NC(c1ccccc1)c1ccccc1 | 83.5 µM | 52.2 µM |
| 0.4 µM |  |  |  |  |  | CC[C@H](N)C(=O)N[C@@H]1C(=O)N2[C@@H](CC[C@@H]1CCNCc1ccccc1)CC[C@H]2C(=O)NC(c1ccccc1)c1ccccc1 | 39.2 µM | 15.4 µM |
| 1.8 µM |  |  |  |  |  | CC[C@H](N)C(=O)N[C@@H]1C(=O)N2[C@@H](CC[C@@H]1CCO)CC[C@H]2C(=O)NC(c1ccccc1)c1ccccc1 | > 100 µM | > 100 µM |
